HELM strings list units from the 5' end as sugar, base in round brackets, then linkage (d deoxyribose, r ribose, m 2'-O-methyl, p phosphodiester). Strings are as the collection lists them; they lack the last nucleoside at the 3' end of the tested compound. [moe] = 2'-O-(2-methoxyethyl) (MOE); [sp] = phosphorothioate linkage; [m5C] = 5-methylcytosine

The target of this data set is SCN2A. Description: mouse, dose not given. The following applies: ASO.
Substance “RNA1{[moe](G)[sp].[moe](G)p.[moe](A)p.[moe](T)p.[moe](A)p.d(G)[sp].d(T)[sp].d(G)[sp].d([m5C])[sp].d(T)[sp].d([m5C])[sp].d([m5C])[sp].d(A)[sp].d(T)[sp].d(A)[sp].[moe](G)p.[moe]([m5C])p.[moe]([m5C])[sp].[moe](A)}$$$$ (last 3' nucleoside missing)” showed a 3 h FOB score of 2 score 0-7.

“RNA1{[moe](G)[sp].[moe](G)p.[moe](G)p.[moe](A)p.[moe](T)p.d(A)[sp].d(G)[sp].d(T)[sp].d(G)[sp].d([m5C])[sp].d(T)[sp].d([m5C])[sp].d([m5C])[sp].d(A)[sp].d(T)[sp].[moe](A)p.[moe](G)p.[moe]([m5C])[sp].[moe]([m5C])}$$$$ (last 3' nucleoside missing)”: the 3 h FOB score is 1.33 score 0-7.

Take “RNA1{[moe]([m5C])[sp].[moe]([m5C])p.[moe](A)p.[moe](T)p.[moe](T)p.d(T)[sp].d([m5C])[sp].d(T)[sp].d(A)[sp].d(T)[sp].d(A)[sp].d(A)[sp].d([m5C])[sp].d(T)[sp].d([m5C])[sp].[moe](A)p.[moe](G)p.[moe]([m5C])[sp].[moe](A)}$$$$ (last 3' nucleoside missing)”: the 3 h FOB score came out at 0 score 0-7.

“RNA1{[moe](T)[sp].[moe](T)p.[moe]([m5C])p.[moe](T)p.[moe](A)p.[moe](T)p.d(T)[sp].d(T)[sp].d(T)[sp].d(A)[sp].d(T)[sp].d(A)[sp].d(A)[sp].d(A)[sp].d(T)[sp].d(G)[sp].[moe]([m5C])p.[moe]([m5C])[sp].[moe](G)}$$$$ (last 3' nucleoside missing)” came in with a 3 h FOB score of 3 score 0-7.

As for “RNA1{[moe](A)[sp].[moe](T)p.[moe]([m5C])p.[moe](A)p.d(T)[sp].d(G)[sp].d([m5C])[sp].d(A)[sp].d(T)[sp].d(A)[sp].d(A)[sp].d(T)[sp].d([m5C])[sp].d([m5C])[sp].[moe]([m5C])p.[moe](A)p.[moe](T)p.[moe](T)[sp].[moe](A)}$$$$ (last 3' nucleoside missing)”, the 3 h FOB score came to 1 score 0-7.

“RNA1{[moe](T)[sp].[moe]([m5C])p.[moe](A)p.[moe](G)p.[moe]([m5C])p.[moe](A)p.d(T)[sp].d(G)[sp].d(T)[sp].d(T)[sp].d(T)[sp].d(A)[sp].d(T)[sp].d([m5C])[sp].d(T)[sp].d(T)[sp].[moe](A)p.[moe](G)[sp].[moe](T)}$$$$ (last 3' nucleoside missing)”: the 3 h FOB score was found to be 0 score 0-7.

“RNA1{[moe](A)[sp].[moe]([m5C])p.[moe]([m5C])p.[moe]([m5C])p.[moe](A)p.[moe](G)[sp].d(T)[sp].d(T)[sp].d(T)[sp].d(T)[sp].d(T)[sp].d(T)[sp].d([m5C])[sp].d(A)[sp].[moe](T)p.[moe](T)[sp].[moe](G)}$$$$ (last 3' nucleoside missing)” came in with a 3 h FOB score of 2 score 0-7.

“RNA1{[moe](A)[sp].[moe](T)p.[moe](A)p.[moe](T)p.[moe](T)p.[moe](T)p.d(T)[sp].d(T)[sp].d([m5C])[sp].d(T)[sp].d(A)[sp].d([m5C])[sp].d(A)[sp].d([m5C])[sp].d(T)[sp].d(G)[sp].[moe]([m5C])p.[moe](T)[sp].[moe](G)}$$$$ (last 3' nucleoside missing)”: the 3 h FOB score is 2 score 0-7.

“RNA1{[moe](T)[sp].[moe](G)p.[moe](T)p.[moe](T)p.[moe](T)p.d(G)[sp].d(G)[sp].d(G)[sp].d(T)[sp].d([m5C])[sp].d(T)[sp].d([m5C])[sp].d(T)[sp].d(T)[sp].d(A)[sp].[moe](G)p.[moe]([m5C])p.[moe](T)[sp].[moe](T)}$$$$ (last 3' nucleoside missing)” registered a 3 h FOB score of 2.33 score 0-7.

“RNA1{[moe](T)[sp].[moe](T)p.[moe](T)p.[moe](G)p.d(G)[sp].d(G)[sp].d([m5C])[sp].d([m5C])[sp].d(A)[sp].d(T)[sp].d(T)[sp].d(T)[sp].d(T)[sp].d([m5C])[sp].[moe](A)p.[moe](T)p.[moe]([m5C])p.[moe](A)[sp].[moe](T)}$$$$ (last 3' nucleoside missing)” returned a 3 h FOB score of 0 score 0-7.

The substance “RNA1{[moe](A)[sp].[moe](T)p.[moe](G)p.[moe](T)p.[moe](A)p.[moe](A)p.d(T)[sp].d([m5C])[sp].d(A)[sp].d([m5C])[sp].d(T)[sp].d(T)[sp].d(T)[sp].d([m5C])[sp].d(A)[sp].d(T)[sp].[moe]([m5C])p.[moe]([m5C])[sp].[moe](A)}$$$$ (last 3' nucleoside missing)” had a 3 h FOB score of 0 score 0-7.

As for “RNA1{[moe](A)[sp].[moe]([m5C])p.[moe]([m5C])p.[moe](A)p.[moe]([m5C])p.d(G)[sp].d([m5C])[sp].d(T)[sp].d(T)[sp].d(A)[sp].d([m5C])[sp].d(A)[sp].d(T)[sp].d([m5C])[sp].d(A)[sp].[moe](A)p.[moe](A)p.[moe]([m5C])[sp].[moe](A)}$$$$ (last 3' nucleoside missing)”, the 3 h FOB score was 0.33 score 0-7.

In turn, “RNA1{[moe](T)[sp].[moe]([m5C])p.[moe](T)p.[moe](G)p.d([m5C])[sp].d(A)[sp].d(T)[sp].d(G)[sp].d(T)[sp].d(A)[sp].d(A)[sp].d([m5C])[sp].d([m5C])[sp].d(T)[sp].[moe](T)p.[moe](T)p.[moe](A)p.[moe](T)[sp].[moe](A)}$$$$ (last 3' nucleoside missing)” had a 3 h FOB score of 1 score 0-7.

As to “RNA1{[moe]([m5C])[sp].[moe](A)p.[moe](T)p.[moe](G)p.d(T)[sp].d(A)[sp].d(A)[sp].d(T)[sp].d([m5C])[sp].d(A)[sp].d([m5C])[sp].d(T)[sp].d(T)[sp].d(T)[sp].[moe]([m5C])p.[moe](A)p.[moe](T)p.[moe]([m5C])[sp].[moe]([m5C])}$$$$ (last 3' nucleoside missing)”, the 3 h FOB score was found to be 0 score 0-7.

In turn, “RNA1{[moe](G)[sp].[moe]([m5C])p.[moe](A)p.[moe](T)p.d(A)[sp].d(A)[sp].d(T)[sp].d([m5C])[sp].d([m5C])[sp].d([m5C])[sp].d(A)[sp].d(T)[sp].d(T)[sp].d(A)[sp].[moe](T)p.[moe](A)p.[moe]([m5C])p.[moe](A)[sp].[moe](A)}$$$$ (last 3' nucleoside missing)” yielded a 3 h FOB score of 0 score 0-7.

Consider “RNA1{[moe](A)[sp].[moe]([m5C])p.[moe]([m5C])p.[moe]([m5C])p.[moe](A)[sp].d(G)[sp].d(T)[sp].d(T)[sp].d(T)[sp].d(T)[sp].d(T)[sp].d(T)[sp].d([m5C])[sp].[moe](A)p.[moe](T)p.[moe](T)[sp].[moe](G)}$$$$ (last 3' nucleoside missing)”, for which the 3 h FOB score was determined as 1.33 score 0-7.

Take “RNA1{[moe](A)[sp].[moe](T)p.[moe](G)p.[moe](T)p.d(A)[sp].d(A)[sp].d([m5C])[sp].d([m5C])[sp].d(T)[sp].d(T)[sp].d(T)[sp].d(A)[sp].d(T)[sp].d(A)[sp].[moe]([m5C])p.[moe](A)p.[moe](T)p.[moe](T)[sp].[moe](T)}$$$$ (last 3' nucleoside missing)”: the 3 h FOB score turned out to be 0 score 0-7.

Take “RNA1{[moe](T)[sp].[moe](T)p.[moe](G)p.[moe](A)p.[moe]([m5C])p.d([m5C])[sp].d(A)[sp].d([m5C])[sp].d(G)[sp].d([m5C])[sp].d(T)[sp].d(T)[sp].d(A)[sp].d([m5C])[sp].d(A)[sp].[moe](T)p.[moe]([m5C])p.[moe](A)[sp].[moe](A)}$$$$ (last 3' nucleoside missing)”: the 3 h FOB score came to 2 score 0-7.

The substance “RNA1{[moe](A)[sp].[moe](T)p.[moe](T)p.[moe]([m5C])p.[moe](T)p.d(A)[sp].d(T)[sp].d(T)[sp].d(T)[sp].d(T)[sp].d(A)[sp].d(T)[sp].d(A)[sp].d(A)[sp].d(A)[sp].[moe](T)p.[moe](G)p.[moe]([m5C])[sp].[moe]([m5C])}$$$$ (last 3' nucleoside missing)” had a 3 h FOB score of 1 score 0-7.

For “RNA1{[moe](T)[sp].[moe](G)p.[moe]([m5C])p.[moe](T)p.[moe]([m5C])p.d(A)[sp].d([m5C])[sp].d(T)[sp].d(G)[sp].d(T)[sp].d([m5C])[sp].d([m5C])[sp].d(T)[sp].d(A)[sp].d(T)[sp].[moe](T)p.[moe](G)p.[moe](A)[sp].[moe](A)}$$$$ (last 3' nucleoside missing)”, the 3 h FOB score came out at 4 score 0-7.

“RNA1{[moe](G)[sp].[moe]([m5C])p.[moe](A)p.[moe](T)p.[moe](G)p.[moe](T)p.d(A)[sp].d(A)[sp].d([m5C])[sp].d([m5C])[sp].d(T)[sp].d(T)[sp].d(T)[sp].d(A)[sp].d(T)[sp].d(A)[sp].[moe]([m5C])p.[moe](A)[sp].[moe](T)}$$$$ (last 3' nucleoside missing)” returned a 3 h FOB score of 0 score 0-7.

“RNA1{[moe]([m5C])[sp].[moe]([m5C])p.[moe](A)p.[moe]([m5C])p.[moe](G)p.d(A)[sp].d([m5C])[sp].d(A)[sp].d(T)[sp].d(A)[sp].d(T)[sp].d(T)[sp].d(T)[sp].d(T)[sp].d(T)[sp].[moe]([m5C])p.[moe](T)p.[moe](A)[sp].[moe]([m5C])}$$$$ (last 3' nucleoside missing)” registered a 3 h FOB score of 0 score 0-7.

As for “RNA1{[moe](A)[sp].[moe](G)p.[moe]([m5C])p.[moe](A)p.[moe](T)p.[moe](G)p.d(T)[sp].d(T)[sp].d(T)[sp].d(A)[sp].d(T)[sp].d([m5C])[sp].d(T)[sp].d(T)[sp].d(A)[sp].d(G)[sp].[moe](T)p.[moe](T)[sp].[moe]([m5C])}$$$$ (last 3' nucleoside missing)”, the 3 h FOB score amounted to 1 score 0-7.

In turn, “RNA1{[moe](A)[sp].[moe]([m5C])p.[moe]([m5C])p.[moe](A)p.d([m5C])[sp].d(G)[sp].d([m5C])[sp].d(T)[sp].d(T)[sp].d(A)[sp].d([m5C])[sp].d(A)[sp].d(T)[sp].d([m5C])[sp].[moe](A)p.[moe](A)p.[moe](A)p.[moe]([m5C])[sp].[moe](A)}$$$$ (last 3' nucleoside missing)” had a 3 h FOB score of 0 score 0-7.

Substance “RNA1{[moe](A)[sp].[moe](T)p.[moe](G)p.[moe]([m5C])p.[moe](A)p.[moe](T)p.d(A)[sp].d(A)[sp].d(T)[sp].d([m5C])[sp].d([m5C])[sp].d([m5C])[sp].d(A)[sp].d(T)[sp].d(T)[sp].d(A)[sp].[moe](T)p.[moe](A)[sp].[moe]([m5C])}$$$$ (last 3' nucleoside missing)” displayed a 3 h FOB score of 0 score 0-7.
